# Patent US12215140B2, “Method of stabilizing protein contained in specimen and solution for stabilizing protein contained in specimen” (EIKEN KAGAKU KABUSHIKI KAISHA, priority 2018, dated 2025)
# Test system: hemoglobin-haptoglobin complex
# Test: Stability of hemoglobin (as hemoglobin-haptoglobin complex) in samples preserved at 37° C. in preservation solution containing 1 unit/L haptoglobin, Hb measured by latex agglutination method (Examples 1 to 7)
# Design: species or system human
# Conditions: arylboronic acid 15 mmol/L
# Method: Preservation solutions were prepared with the addition of 40 mmol/L HEPES (pH 6.8), 0.1% BSA, 0.1% NaN3, 1 unit/L haptoglobin, and 0 to 100 mmol/L phenylboronic acid. Samples obtained by adding hemoglobin-added fecal specimens to the preservation solutions so that the fecal concentration would be 0.5% were preserved at 37° C. for 0, 7, 14, and 21 days. The fecal specimens were added with hemoglobin having an amount such that the hemoglobin concentration in the samples would be about 300 μg/L. Instead of the fecal specimens to which hemoglobin was added, samples containing no fecal specimens, in which hemoglobin was added to the preservation solutions so that the hemoglobin concentration in the samples would be 300 μg/L, were similarly preserved. The hemoglobin (Hb) concentrations (μg/L) in the preserved samples were measured by the latex agglutination method.
# The concentrations of hemoglobin were measured using “OC-Hemodia (registered trademark) Auto III ‘EIKEN’” (available from EIKEN CHEMICAL CO., LTD.) as a measurement reagent and “OC-sensor DIANA” (available from EIKEN CHEMICAL CO., LTD.) as a measurement device. The above measurement reagent contains latex particles immobilizing an anti-human hemoglobin rabbit polyclonal antibody.
# From the measured concentrations of hemoglobin, the recovery ratios (%) were calculated with respect to the hemoglobin concentrations immediately after the fecal specimens were added to the preservation solutions (i.e., concentrations 0 days after the fecal specimens were added).
# (§1) For comparative examples, preservation solutions to which no arylboronic acid was added were prepared, and testing was conducted in the same manner.
# The concentration of phenylboronic acid in the preservation solutions of Example 1 was fixed to 15 mmol/L, preservation solutions to which a sugar (sorbitol, sucrose, trehalose, glucose, fructose, or mannitol) was further added at 50 mmol/L or 100 mmol/L or preservation solutions to which no sugar was added were prepared, and testing was conducted in the same manner as in Example 1. For comparative examples, preservation solutions to which the phenylboronic acid and sugar were not added were prepared, and testing was conducted in the same manner.
# Preservation solutions in which sorbitol, sucrose, trehalose, glucose, fructose, or mannitol was added at 100 mmol/L to the preservation solutions of Example 1 containing no phenylboronic acid were prepared, and testing was conducted in the same manner as in Example 1. For comparison, the same testing was conducted without adding these sugars.
# The concentration of phenylboronic acid in the preservation solutions of Example 1 was fixed to 15 mmol/L, preservation solutions to which sorbitol was added at 10 to 500 mmol/L or sucrose was added at 10 to 250 mmol/L or preservation solutions to which no sugar was added were prepared, and testing was conducted in the same manner as in Example 1. For comparative examples, preservation solutions to which the phenylboronic acid and sugar were not added were prepared, and testing was conducted in the same manner.
# as §1
# [1] = Feces 1, sugar (if added) 100 mmol/L, 0 days at 37° C.
# [2] = Feces 1, sugar (if added) 100 mmol/L, 7 days at 37° C.
# [3] = Feces 1, sugar (if added) 100 mmol/L, 14 days at 37° C.
# [4] = Feces 2, sugar (if added) 100 mmol/L, 0 days at 37° C.
# [5] = Feces 2, sugar (if added) 100 mmol/L, 7 days at 37° C.
# [6] = Feces 2, sugar (if added) 100 mmol/L, 14 days at 37° C.
# [7] = Feces 3, sugar (if added) 100 mmol/L, 0 days at 37° C.
# [8] = Feces 3, sugar (if added) 100 mmol/L, 7 days at 37° C.
# [9] = Feces 3, sugar (if added) 100 mmol/L, 14 days at 37° C.
# [10] = No feces, sugar (if added) 100 mmol/L, 0 days at 37° C.
# [11] = No feces, sugar (if added) 100 mmol/L, 7 days at 37° C.
# [12] = No feces, sugar (if added) 100 mmol/L, 14 days at 37° C.
smiles,measurement,setting,value
"O=C(O)c1cccc(B(O)O)c1 [3C-PBA, 3-carboxyphenylboronic acid]",Hb concentration,[1],309 µg/L
same,Recovery ratio with respect to Hb after 0 days,[1],100%
same,Hb concentration,[2],249 µg/L
same,Recovery ratio with respect to Hb after 0 days,[2],81%
same,Hb concentration,[3],239 µg/L
same,Recovery ratio with respect to Hb after 0 days,[3],77%
same,Hb concentration,"Feces 1, 37° C., 0 days",309 µg/L
same,Recovery ratio with respect to Hb after 0 days,"Feces 1, 37° C., 0 days",100%
same,Hb concentration,"Feces 1, 37° C., 7 days",249 µg/L
same,Recovery ratio with respect to Hb after 0 days,"Feces 1, 37° C., 7 days",81%
same,Hb concentration,"Feces 1, 37° C., 14 days",239 µg/L
same,Recovery ratio with respect to Hb after 0 days,"Feces 1, 37° C., 14 days",77%
same,Hb concentration,[4],309 µg/L
same,Recovery ratio with respect to Hb after 0 days,[4],100%
same,Hb concentration,[5],264 µg/L
same,Recovery ratio with respect to Hb after 0 days,[5],85%
same,Hb concentration,[6],240 µg/L
same,Recovery ratio with respect to Hb after 0 days,[6],78%
same,Hb concentration,"Feces 2, 37° C., 0 days",309 µg/L
same,Recovery ratio with respect to Hb after 0 days,"Feces 2, 37° C., 0 days",100%
same,Hb concentration,"Feces 2, 37° C., 7 days",264 µg/L
same,Recovery ratio with respect to Hb after 0 days,"Feces 2, 37° C., 7 days",85%
same,Hb concentration,"Feces 2, 37° C., 14 days",240 µg/L
same,Recovery ratio with respect to Hb after 0 days,"Feces 2, 37° C., 14 days",78%
same,Hb concentration,[7],300 µg/L
same,Recovery ratio with respect to Hb after 0 days,[7],100%
same,Hb concentration,[8],213 µg/L
same,Recovery ratio with respect to Hb after 0 days,[8],71%
same,Hb concentration,[9],200 µg/L
same,Recovery ratio with respect to Hb after 0 days,[9],67%
same,Hb concentration,"Feces 3, 37° C., 0 days",300 µg/L
same,Recovery ratio with respect to Hb after 0 days,"Feces 3, 37° C., 0 days",100%
same,Hb concentration,"Feces 3, 37° C., 7 days",213 µg/L
same,Recovery ratio with respect to Hb after 0 days,"Feces 3, 37° C., 7 days",71%
same,Hb concentration,"Feces 3, 37° C., 14 days",200 µg/L
same,Recovery ratio with respect to Hb after 0 days,"Feces 3, 37° C., 14 days",67%
same,Hb concentration,[10],293 µg/L
same,Recovery ratio with respect to Hb after 0 days,[10],100%
same,Hb concentration,[11],281 µg/L
same,Recovery ratio with respect to Hb after 0 days,[11],96%
same,Hb concentration,[12],276 µg/L
same,Recovery ratio with respect to Hb after 0 days,[12],94%
same,Hb concentration,"No feces, 37° C., 0 days",293 µg/L
same,Recovery ratio with respect to Hb after 0 days,"No feces, 37° C., 0 days",100%
same,Hb concentration,"No feces, 37° C., 7 days",281 µg/L
same,Recovery ratio with respect to Hb after 0 days,"No feces, 37° C., 7 days",96%
same,Hb concentration,"No feces, 37° C., 14 days",276 µg/L
same,Recovery ratio with respect to Hb after 0 days,"No feces, 37° C., 14 days",94%
"OB(O)c1cccc(O)c1 [3H-PBA, 3-hydroxyphenylboronic acid]",Hb concentration,[1],327 µg/L
same,Recovery ratio with respect to Hb after 0 days,[1],100%
same,Hb concentration,[2],269 µg/L
same,Recovery ratio with respect to Hb after 0 days,[2],82%
same,Hb concentration,[3],268 µg/L
same,Recovery ratio with respect to Hb after 0 days,[3],82%
same,Hb concentration,"Feces 1, 37° C., 0 days",327 µg/L
same,Recovery ratio with respect to Hb after 0 days,"Feces 1, 37° C., 0 days",100%
same,Hb concentration,"Feces 1, 37° C., 7 days",269 µg/L
same,Recovery ratio with respect to Hb after 0 days,"Feces 1, 37° C., 7 days",82%
same,Hb concentration,"Feces 1, 37° C., 14 days",268 µg/L
same,Recovery ratio with respect to Hb after 0 days,"Feces 1, 37° C., 14 days",82%
same,Hb concentration,[4],326 µg/L
same,Recovery ratio with respect to Hb after 0 days,[4],100%
same,Hb concentration,[5],277 µg/L
same,Recovery ratio with respect to Hb after 0 days,[5],85%
same,Hb concentration,[6],264 µg/L
same,Recovery ratio with respect to Hb after 0 days,[6],81%
same,Hb concentration,"Feces 2, 37° C., 0 days",326 µg/L
same,Recovery ratio with respect to Hb after 0 days,"Feces 2, 37° C., 0 days",100%
same,Hb concentration,"Feces 2, 37° C., 7 days",227 µg/L
same,Recovery ratio with respect to Hb after 0 days,"Feces 2, 37° C., 7 days",85%
same,Hb concentration,"Feces 2, 37° C., 14 days",264 µg/L
same,Recovery ratio with respect to Hb after 0 days,"Feces 2, 37° C., 14 days",81%
same,Hb concentration,[7],313 µg/L
same,Recovery ratio with respect to Hb after 0 days,[7],100%
same,Hb concentration,[8],213 µg/L
same,Recovery ratio with respect to Hb after 0 days,[8],68%
same,Hb concentration,[9],206 µg/L
same,Recovery ratio with respect to Hb after 0 days,[9],66%
same,Hb concentration,"Feces 3, 37° C., 0 days",313 µg/L
same,Recovery ratio with respect to Hb after 0 days,"Feces 3, 37° C., 0 days",100%
same,Hb concentration,"Feces 3, 37° C., 7 days",213 µg/L
same,Recovery ratio with respect to Hb after 0 days,"Feces 3, 37° C., 7 days",68%
same,Hb concentration,"Feces 3, 37° C., 14 days",206 µg/L
same,Recovery ratio with respect to Hb after 0 days,"Feces 3, 37° C., 14 days",66%
same,Hb concentration,[10],303 µg/L
same,Recovery ratio with respect to Hb after 0 days,[10],100%
same,Hb concentration,[11],294 µg/L
same,Recovery ratio with respect to Hb after 0 days,[11],97%
same,Hb concentration,[12],296 µg/L
same,Recovery ratio with respect to Hb after 0 days,[12],98%
same,Hb concentration,"No feces, 37° C., 0 days",303 µg/L
same,Recovery ratio with respect to Hb after 0 days,"No feces, 37° C., 0 days",100%
same,Hb concentration,"No feces, 37° C., 7 days",294 µg/L
same,Recovery ratio with respect to Hb after 0 days,"No feces, 37° C., 7 days",97%
same,Hb concentration,"No feces, 37° C., 14 days",296 µg/L
same,Recovery ratio with respect to Hb after 0 days,"No feces, 37° C., 14 days",98%
